# Like-named read-outs stand apart in the source and are kept apart here.
# What was measured:
# Type in all cases: in vivo
# [1] = tested on: Colletotricum lagenarium; experiment: Cucumber Anthracnose (COLLLA), foliar spray, percent disease control
# Protocol: The activity of the compounds as effective fungicides was determined by applying the compounds to plants and observing control of fungal disease. The compounds were formulated at 200 ppm in 10 vol. % acetone plus 90 vol. % Triton X water (deionized water 99.99 wt %+0.01 wt % Triton X100), giving a “formulated test compound.” In a few cases, compounds were formulated at 75 or 8.3 ppm rather than 200 ppm in 10 vol. % acetone plus 90 vol. % Triton X water (deionized water 99.99 wt. %+0.01 wt. % Triton X100), giving a “formulated test compound.” Formulated test compounds were applied to plants using a turn table sprayer fitted with two opposing air atomization nozzles which delivered approximately 1500 L/ha of spray volume. All plants were inoculated with spores of the fungus the day after treatment, then incubated in an environment conducive to disease development. Disease severity was evaluated 4 to 15 days later, depending on the disease and the speed of disease development. The following experiments were performed in the laboratory to determine the fungicidal efficacy of the compounds of the invention. Cucumber Anthracnose (causal agent Colletotricum lagenarium; Bayer code COLLLA): Cucumber plants (variety Bush Champion) were grown from seed in a soil-less peat-based potting mixture (Metromix) until the first true leaf was 20-80% expanded. Each pot contained 1 seedling. These plants were sprayed until wet with the formulated test compound. On the following day, the leaves were inoculated with an aqueous spore suspension of Colletotricum lagenarium and the plants were kept in high humidity for one day to permit spores to germinate and infect the leaf. The plants were then transferred to a growth chamber until disease developed on untreated control plants. […] The effectiveness of the test compounds at controlling disease when sprayed on leaves was determined by assessing the severity of disease on treated plants, then converting the severity to percent control based on the level of disease on untreated, inoculated plants. Data are the level (in percent) at which the given disease was controlled when the given compound was applied to the foliage of the plants at 200 ppm. In a few cases (noted in the table) the compound was applied to the plants at 75 ppm or 8.3 ppm.
# [2] = tested on: Pseudoperonospora cubensis; experiment: Cucumber Downy Mildew (PSPECU), foliar spray, percent disease control; conditions: read-out: PSPECU percent control
# Protocol: The activity of the compounds as effective fungicides was determined by applying the compounds to plants and observing control of fungal disease. The compounds were formulated at 200 ppm in 10 vol. % acetone plus 90 vol. % Triton X water (deionized water 99.99 wt %+0.01 wt % Triton X100), giving a “formulated test compound.” In a few cases, compounds were formulated at 75 or 8.3 ppm rather than 200 ppm in 10 vol. % acetone plus 90 vol. % Triton X water (deionized water 99.99 wt. %+0.01 wt. % Triton X100), giving a “formulated test compound.” Formulated test compounds were applied to plants using a turn table sprayer fitted with two opposing air atomization nozzles which delivered approximately 1500 L/ha of spray volume. All plants were inoculated with spores of the fungus the day after treatment, then incubated in an environment conducive to disease development. Disease severity was evaluated 4 to 15 days later, depending on the disease and the speed of disease development. The following experiments were performed in the laboratory to determine the fungicidal efficacy of the compounds of the invention. Cucumber Downy Mildew (causal agent Pseudoperonospora cubensis; Bayer code […]): Cucumber plants (variety Bush Champion) were grown from seed in a soil-less peat-based potting mixture (Metromix) until the first true leaf was 20-80% expanded. Each pot contained 1 seedling. These plants were sprayed until wet with the formulated test compound. On the following day, the leaves were inoculated with an aqueous suspension of downy mildew sporangia and the plants were kept in high humidity for one day to permit sporangia to germinate and infect the leaf. The plants were then incubated in a growth chamber until disease developed on untreated control plants. […] The effectiveness of the test compounds at controlling disease when sprayed on leaves was determined by assessing the severity of disease on treated plants, then converting the severity to percent control based on the level of disease on untreated, inoculated plants. Data are the level (in percent) at which the given disease was controlled when the given compound was applied to the foliage of the plants at 200 ppm. In a few cases (noted in the table) the compound was applied to the plants at 75 ppm or 8.3 ppm.
# [3] = tested on: Cochliobolus sativus; experiment: Spot Blotch of Wheat (COCHSA), foliar spray, percent disease control; conditions: Bipolaris sorokiniana, read-out: COCHSA percent control
Compound,pest or weed control at 200 µg/mL ([1]; foliar) [%],pest or weed control at 200 µg/mL ([2]; foliar) [%],pest or weed control at 200 µg/mL ([3]; foliar) [%],pest or weed control at 200 µg/mL ([1]; foliar spray) [%],pest or weed control at 200 µg/mL ([2]; foliar spray) [%],pest or weed control at 200 µg/mL ([3]; foliar spray) [%]
"c1ccc(COc2ccc(CCNc3ncnc4nccnc34)cc2)cc1 [Compound 1, [2-(4-Benzyloxyphenyl)-ethyl]-pteridin-4-yl-amine]",80 to 100,80 to 100,50 to 79,–,–,–
CC(F)(F)c1ccnc(Oc2ccc(CCNc3ncnc4nccnc34)cc2F)c1 [Compound 193],0 to 49,80 to 100,0 to 49,–,–,–
Oc1ccc(CCNc2ncnc3nccnc23)cc1Br [Compound 211],–,–,–,0 to 49,0 to 49,0 to 49
Cc1nc(NCCc2ccc(O)cc2)c2nc(C)c(C)nc2n1 [Compound 209],–,–,–,0 to 49,0 to 49,0 to 49
Cc1c(CCNc2ncnc3nccnc23)ccc(Oc2c(F)cnc(C(F)(F)F)c2F)c1C [Compound 149],0 to 49,80 to 100,0 to 49,–,–,–
CCc1ccc(Oc2ccc(CCN(C(=O)OC(C)(C)C)c3ncnc4nccnc34)cc2)cc1 [Compound 139],0 to 49,0 to 49,0 to 49,–,–,–
FC(F)(F)c1ccnc(Oc2ccc(OCCNc3ncnc4nccnc34)cc2)c1 [Compound 83],80 to 100,80 to 100,0 to 49,–,–,–
c1ccc(-c2nsc(Oc3ccc(CCNc4ncnc5nccnc45)cc3)n2)cc1 [Compound 22],50 to 79,50 to 79,0 to 49,–,–,–
N#Cc1c(Cl)cncc1Oc1ccc(CCNc2ncnc3nccnc23)cc1 [Compound 35],0 to 49,80 to 100,0 to 49,–,–,–
N#Cc1nccnc1Oc1ccc(CCNc2ncnc3nccnc23)cc1 [Compound 18],0 to 49,80 to 100,0 to 49,–,–,–
"COc1ccc(CCNc2nc(C)nc3nc(C)c(C)nc23)cc1 [Compound 208, [2-(4-Methoxyphenyl)-ethyl]-(2,6,7-trimethylpteridin-4-yl)-amine]",–,–,–,0 to 49,50 to 79,0 to 49
COc1cc(C(F)(F)F)cc(Oc2ccc(CCNc3ncnc4nccnc34)cc2OC)n1 [Compound 178],0 to 49,0 to 49,0 to 49,–,–,–
COc1ccc(CCNc2ncnc3nccnc23)cc1Br [Compound 210],–,–,–,0 to 49,80 to 100,0 to 49
Cc1c(O)ccc(CCNc2ncnc3nccnc23)c1C [Compound 175],0 to 49,0 to 49,0 to 49,–,–,–
CCOc1cc(CCNc2ncnc3nccnc23)ccc1Oc1cc(C(C)C)ccn1 [Compound 205],–,–,–,0 to 49,80 to 100,0 to 49
"CC(C)(C)c1ccnc(Oc2ccc(CCNc3ncnc4nccnc34)cc2)c1 [Compound 207, {2-[4-(4-tert-Butylpyridin-2-yloxy)-phenyl]-ethyl}-pteridin-4-ylamine]",–,–,–,0 to 49,80 to 100,0 to 49

# Source: patent US8895568B2, “Compositions comprising substituted pteridines as agrochemicals” (Dow AgroSciences LLC, priority 2009, dated 2014)
